Data published in patent US11667649B2, “Heteroaromatic macrocyclic ether chemotherapeutic agents” (Nuvalent, Inc., priority 2020, dated 2023).

Tested on: TPM3-NTRK1-wt IC50 / primary target (e.g. CD74-ROS1-wt) IC50, Ba/F3 cells
Experiment: Cell assay TRKA selectivity (TRKA potency divided by primary target potency)
Format: cell-based
Conditions: for TPM3-NTRK1-wt/CD74-ROS1-G2032R: TRKA selectivity ratio: TPM3-NTRK1-wt IC50 / CD74-ROS1-G2032R IC50, Ba/F3 cells; for TPM3-NTRK1-wt/CD74-ROS1-wt: TRKA selectivity ratio: TPM3-NTRK1-wt IC50 / CD74-ROS1-wt IC50, Ba/F3 cells; for TPM3-NTRK1-wt/EML4-ALK-L1196M-G1202R: TRKA selectivity ratio: TPM3-NTRK1-wt IC50 / EML4-ALK-L1196M-G1202R IC50, Ba/F3 cells; for TPM3-NTRK1-wt/EML4-ALK-wt: TRKA selectivity ratio: TPM3-NTRK1-wt IC50 / EML4-ALK-wt IC50, Ba/F3 cells
From the text: Genes encoding CD74-ROS1 wild-type (wt), CD74-ROS1 G2032R, CD74-ROS1 S1986F, CD74-ROS1 L2026M, CD74-ROS1 D2033N, EML4-ALK wt (variant 1), EML4-ALK G1202R (variant 1), EML4-ALK L1196M/G1202R (variant 1), EML4-ALK G1202R/G1269A (variant 1), EML4-ALK G1202R/L1198F (variant 1), and TPM3-TRKA were synthesized at GeneRay, cloned into the retroviral construct pMSCV-puro (Biovector), and packaged into retroviral particles. The virus was used to infect Ba/F3 cells (RIKEN) at multiplicity of infection=1 for 1 day. Infected cells were rescued in media (RPMI-1640 with 10% fetal bovine serum and 1% streptomycin and penicillin) supplemented with mouse IL-3 (10 ng/mL) for 2 days, and stable cell lines were selected by IL-3 withdrawal and puromycin (0.8 μg/mL) for 7 days. Monoclones were selected by single-cell dilution in IL-3-free medium containing puromycin (0.8 μg/mL). Transformation of desired genes was confirmed by Sanger sequencing and western blot using the following antibodies: ROS1 (CST #3287), ALK (CST #3633), and pan-TRK (Abcam #76291).
Stable cells were plated at 1,000 cells/well (40 μL) in a 384-well plate for 1 day. Test compounds (40 nL) were then added in a 3-fold dilution series using the TECAN EVO200 liquid handler and incubated for 72 hours. Plates were equilibrated at room temperature for 15 minutes followed by addition of 40 μL CellTiter-Glo reagent (Promega). Luminescence was measured on a plate reader. Half-maximal inhibitory concentration (IC50) was calculated from percent inhibition and inhibitor concentration using four-parameter logistic regression. […] Exemplary data is given in Table 4 (nd is not determined).
TRKA selectivity was calculated by dividing a compound's TRKA potency by its primary target potency (e.g. TPM3-NTRK1-wt IC50/CD74-ROS1-wt IC50). Compound selectivity can be interpreted by binning ratio values: bin A for very high selectivity, ratio>30-fold; bin B for high selectivity, ratio>10-fold; bin C for moderate selectivity, ratio≥1; and bin D for low selectivity, ratio<1. […] (nd=not determined).

CCn1ncc2c1-c1cnc(N)c(c1)O[C@H](C)c1cc(F)ccc1-c1nccc(OC)c1C2 [Example 151, (20R)-3-ethyl-17-fluoro-9-methoxy-20-methyl-21-oxa-3,4,12,24-tetraazapentacyclo[20.3.1.0^2,^6.0^8,^13.0^14,^19]hexacosa-1(25),2(6),4,8(13),9,11,14,16,18,22(26),23-undecaen-23-amine]
TPM3-NTRK1-wt/CD74-ROS1-G2032R: A (bin A for very high selectivity, ratio>30-fold)
TPM3-NTRK1-wt/CD74-ROS1-wt: A (bin A for very high selectivity, ratio>30-fold)
TPM3-NTRK1-wt/EML4-ALK-L1196M-G1202R: C (bin C for moderate selectivity, ratio≥1)
TPM3-NTRK1-wt/EML4-ALK-wt: A (bin A for very high selectivity, ratio>30-fold)

CCn1ncc2c1-c1cnc(N)c(c1)O[C@H](C)c1cc(F)ccc1-n1ncc(F)c1C2 [Example 46, (19R)-3-ethyl-9,16-difluoro-19-methyl-20-oxa-3,4,11,12,23-pentaazapentacyclo[19.3.1.0^2,^6.0^8,^12.0^13,^18]pentacosa-1(24),2(6),4,8,10,13,15,17,21(25),22-decaen-22-amine]
TPM3-NTRK1-wt/CD74-ROS1-G2032R: A (bin A for very high selectivity, ratio>30-fold)
TPM3-NTRK1-wt/CD74-ROS1-wt: A (bin A for very high selectivity, ratio>30-fold)
TPM3-NTRK1-wt/EML4-ALK-L1196M-G1202R: C (bin C for moderate selectivity, ratio≥1)
TPM3-NTRK1-wt/EML4-ALK-wt: A (bin A for very high selectivity, ratio>30-fold)

CC1Oc2cc(cnc2N)-c2c(cnn2C(F)F)Cn2ccnc2-c2ccc(F)cc21 (stereo not drawn) [Example 44, 3-(difluoromethyl)-16-fluoro-19-methyl-20-oxa-3,4,8,11,23-pentaazapentacyclo[19.3.1.0^2,^6.0^8,^12.0^13,^18]pentacosa-1(24),2(6),4,9,11,13,15,17,21(25),22-decaen-22-amine]
TPM3-NTRK1-wt/CD74-ROS1-G2032R: A (bin A for very high selectivity, ratio>30-fold)
TPM3-NTRK1-wt/CD74-ROS1-wt: A (bin A for very high selectivity, ratio>30-fold)
TPM3-NTRK1-wt/EML4-ALK-L1196M-G1202R: C (bin C for moderate selectivity, ratio≥1)
TPM3-NTRK1-wt/EML4-ALK-wt: A (bin A for very high selectivity, ratio>30-fold)

CCn1nc2c(c1C#N)-c1cnc(N)c(c1)O[C@H](C)c1cc(F)ccc1-n1nccc1C2 [Example 119, (19R)-22-amino-4-ethyl-16-fluoro-19-methyl-20-oxa-4,5,11,12,23-pentaazapentacyclo[19.3.1.0^2,^6.0^8,^12.0^13,^18]pentacosa-1(24),2,5,8,10,13,15,17,21(25),22-decaene-3-carbonitrile]
TPM3-NTRK1-wt/CD74-ROS1-G2032R: D (bin D for low selectivity, ratio<1)
TPM3-NTRK1-wt/CD74-ROS1-wt: A (bin A for very high selectivity, ratio>30-fold)
TPM3-NTRK1-wt/EML4-ALK-L1196M-G1202R: D (bin D for low selectivity, ratio<1)
TPM3-NTRK1-wt/EML4-ALK-wt: A (bin A for very high selectivity, ratio>30-fold)

CCn1nnc2c1-c1cnc(N)c(c1)O[C@H](C)c1cc(F)ccc1-c1sncc1C2 [Example 93, (19R)-3-ethyl-16-fluoro-19-methyl-20-oxa-11-thia-3,4,5,10,23-pentaazapentacyclo[19.3.1.0^2,^6.0^8,^12.0^13,^18]pentacosa-1(24),2(6),4,8(12),9,13,15,17,21(25),22-decaen-22-amine]
TPM3-NTRK1-wt/CD74-ROS1-G2032R: A (bin A for very high selectivity, ratio>30-fold)
TPM3-NTRK1-wt/CD74-ROS1-wt: A (bin A for very high selectivity, ratio>30-fold)
TPM3-NTRK1-wt/EML4-ALK-L1196M-G1202R: C (bin C for moderate selectivity, ratio≥1)
TPM3-NTRK1-wt/EML4-ALK-wt: B (bin B for high selectivity, ratio>10-fold)

CCn1ncc2c1-c1cnc(N)c(c1)OCc1cc(F)ccc1-c1nn(C)cc1C2 [Example 49, 3-ethyl-16-fluoro-10-methyl-20-oxa-3,4,10,11,23-pentaazapentacyclo[19.3.1.0^2,^6.0^8,^12.0^13,^18]pentacosa-1(24),2(6),4,8,11,13,15,17,21(25),22-decaen-22-amine]
TPM3-NTRK1-wt/CD74-ROS1-G2032R: A (bin A for very high selectivity, ratio>30-fold)
TPM3-NTRK1-wt/CD74-ROS1-wt: A (bin A for very high selectivity, ratio>30-fold)
TPM3-NTRK1-wt/EML4-ALK-L1196M-G1202R: B (bin B for high selectivity, ratio>10-fold)
TPM3-NTRK1-wt/EML4-ALK-wt: A (bin A for very high selectivity, ratio>30-fold)

CCc1nn(C)c2c1-c1cnc(N)c(c1)OCc1cc(F)ccc1-n1nc(C)cc1C2 [Example 55, 3-ethyl-16-fluoro-5,10-dimethyl-20-oxa-4,5,11,12,23-pentaazapentacyclo[19.3.1.0^2,^6.0^8,^12.0^13,^18]pentacosa-1(24),2(6),3,8,10,13,15,17,21(25),22-decaen-22-amine]
TPM3-NTRK1-wt/CD74-ROS1-G2032R: A (bin A for very high selectivity, ratio>30-fold)
TPM3-NTRK1-wt/CD74-ROS1-wt: A (bin A for very high selectivity, ratio>30-fold)
TPM3-NTRK1-wt/EML4-ALK-L1196M-G1202R: C (bin C for moderate selectivity, ratio≥1)
TPM3-NTRK1-wt/EML4-ALK-wt: A (bin A for very high selectivity, ratio>30-fold)

CCc1onc2c1-c1cnc(N)c(c1)O[C@H](C)c1cc(F)ccc1-c1nn(C)cc1C2 [Example 152, (19R)-3-ethyl-16-fluoro-10,19-dimethyl-4,20-dioxa-5,10,11,23-tetraazapentacyclo[19.3.1.0^2,^6.0^8,^12.0^13,^18]pentacosa-1(24),2,5,8,11,13,15,17,21(25),22-decaen-22-amine]
TPM3-NTRK1-wt/CD74-ROS1-G2032R: A (bin A for very high selectivity, ratio>30-fold)
TPM3-NTRK1-wt/CD74-ROS1-wt: A (bin A for very high selectivity, ratio>30-fold)
TPM3-NTRK1-wt/EML4-ALK-L1196M-G1202R: C (bin C for moderate selectivity, ratio≥1)
TPM3-NTRK1-wt/EML4-ALK-wt: A (bin A for very high selectivity, ratio>30-fold)

Nc1ncc2cc1OCc1cc(F)ccc1-n1nc(Cl)cc1Cc1nnn(CC3CC3)c1-2 [Example 110, 10-chloro-3-(cyclopropylmethyl)-16-fluoro-20-oxa-3,4,5,11,12,23-hexaazapentacyclo[19.3.1.0^2,^6.0^8,^12.0^13,^18]pentacosa-1(24),2(6),4,8,10,13,15,17,21(25),22-decaen-22-amine]
TPM3-NTRK1-wt/CD74-ROS1-G2032R: A (bin A for very high selectivity, ratio>30-fold)
TPM3-NTRK1-wt/CD74-ROS1-wt: A (bin A for very high selectivity, ratio>30-fold)
TPM3-NTRK1-wt/EML4-ALK-L1196M-G1202R: A (bin A for very high selectivity, ratio>30-fold)
TPM3-NTRK1-wt/EML4-ALK-wt: A (bin A for very high selectivity, ratio>30-fold)

C[C@H]1Oc2cc(cnc2N)-c2c(nnn2CC2CC2)Cc2cc(C(F)F)nn2-c2ccc(F)cc21 [Example 122, (19R)-3-(cyclopropylmethyl)-10-(difluoromethyl)-16-fluoro-19-methyl-20-oxa-3,4,5,11,12,23-hexaazapentacyclo[19.3.1.0^2,^6.0^8,^12.0^13,^18]pentacosa-1(24),2(6),4,8,10,13,15,17,21(25),22-decaen-22-amine]
TPM3-NTRK1-wt/CD74-ROS1-G2032R: A (bin A for very high selectivity, ratio>30-fold)
TPM3-NTRK1-wt/CD74-ROS1-wt: A (bin A for very high selectivity, ratio>30-fold)
TPM3-NTRK1-wt/EML4-ALK-L1196M-G1202R: C (bin C for moderate selectivity, ratio≥1)
TPM3-NTRK1-wt/EML4-ALK-wt: B (bin B for high selectivity, ratio>10-fold)

CCn1ncc2c1-c1cnc(N)c(c1)O[C@H](C)c1cc(F)ccc1-c1ncoc1C2 [Example 77, (19R)-3-ethyl-16-fluoro-19-methyl-9,20-dioxa-3,4,11,23-tetraazapentacyclo[19.3.1.0^2,^6.0^8,^12.0^13,^18]pentacosa-1(24),2(6),4,8(12),10,13,15,17,21(25),22-decaen-22-amine]
TPM3-NTRK1-wt/CD74-ROS1-G2032R: A (bin A for very high selectivity, ratio>30-fold)
TPM3-NTRK1-wt/CD74-ROS1-wt: A (bin A for very high selectivity, ratio>30-fold)
TPM3-NTRK1-wt/EML4-ALK-L1196M-G1202R: C (bin C for moderate selectivity, ratio≥1)
TPM3-NTRK1-wt/EML4-ALK-wt: A (bin A for very high selectivity, ratio>30-fold)

C[C@H]1Oc2cc(cnc2N)-c2c(CC(F)F)nn(C)c2Cc2cc(C(F)F)nn2-c2ccc(F)cc21 [Example 180, (19R)-3-(2,2-difluoroethyl)-10-(difluoromethyl)-16-fluoro-5,19-dimethyl-20-oxa-4,5,11,12,23-pentaazapentacyclo[19.3.1.0^2,^6.0^8,^12.0^13,^18]pentacosa-1(24),2(6),3,8,10,13,15,17,21(25),22-decaen-22-amine]
TPM3-NTRK1-wt/CD74-ROS1-G2032R: A (bin A for very high selectivity, ratio>30-fold)
TPM3-NTRK1-wt/CD74-ROS1-wt: A (bin A for very high selectivity, ratio>30-fold)
TPM3-NTRK1-wt/EML4-ALK-L1196M-G1202R: C (bin C for moderate selectivity, ratio≥1)
TPM3-NTRK1-wt/EML4-ALK-wt: A (bin A for very high selectivity, ratio>30-fold)
